Data as given in patent US4382030A, “2-Acylaminomethyl-1,4-benzodiazepine derivatives and their salts, pharmaceutical compositions thereof and process for their preparation” (Kali-Chemie Pharma GmbH, priority 1979, dated 1983).

Columns and labels:
[1] = test system: mice (tail flick, heat beam pain reaction); experiment: Tail flick Test in Mice; assay type: in vivo; details: sc, 0.5 h; mouse, s.c.; 30 minutes after administration; >75% increase of reaction time in 50% of animals
Procedure: (§1) This analgesic activity has been evaluated in two pharmacological standard methods, the tail flick test in mice and the arthritis pain test in rats.
3. Tail flick Test in Mice.
This test is carried out according to the method described by D'Amour and Smith (1941), yet fed male and female mice having a body weight of 16 to 25 g are used instead of rats. Thirty minutes prior to treatment with the test compound, each mouse is placed separately in a cylindrical container in such a manner that it cannot turn itself or move forward. Its tail is positioned in a narrow groove projecting out of the container. A certain point of the tail of each animal (about 35 mm beyond the root of the tail) is subjected to the heat beam of a lamp of known strength and temperature which is positioned directly under the tail. The number of seconds which pass before the mouse moves its tail out of the light beam is determined twice, once 30 minutes and once 15 minutes prior to subcutaneous administration of the test compound (10 mg/kg). Mice which show a reaction time differing more than 25% are eliminated from the test. The reaction time is again determined 15 minutes and 30 minutes after the treatment and an increase of the reaction period of more than 75% of the average values prior to treatment in the same animal is considered as showing an analgesic effect. The ED50 (95% reliability) of each test compound 30 minutes after administration is evaluated according to the method of Litchfield and Wilcoxon (1949). The dose which increases the reaction time as compared to the reaction time prior to treatment for more than 75% in 50% of the animals is considered as ED50.

[2] = test system: rats (secondary arthritis pain, mycobacterium smegmae); experiment: Arthritis Pain Test in Rats; assay type: in vivo; details: po, rat, p.o., 3 hours after administration, protection in 50% of treated animals
Procedure: as §1
2. Arthritis Pain Test in Rats.
Male rats having a weight of from 160 to 180 g are anesthetized by small i.p. injection of 20 mg/kg of sodium pentobarbital and 0.1 ml of a suspension of mycobacterium smegmae (SI 043) in liquid paraffin (0.6 mg mycobacterium/0.1 ml of oil) are injected intracutaneously into the left rear paw. Fourteen days later when a marked secondary arthritis has developed in particular in the right rear paw, the effect of the test compound is evaluated. A control-reading is taken 30 minutes prior to administration of the test compound by bending the foot joint of the right rear paw three times and counting the number of squeakings. […] Three hours after oral administration of the test compound the bending of the joint is repeated. Animals which squeak only once or not at all are considered to be protected against pain. Between about 9 and 20 rats are used per dose and the ED50 (95% reliability) is determined according to the method of Litchfield and Wilcoxon (1949). The dose which provides protection in 50% of the treated animals is taken as ED50.

| Structure (SMILES) | ED50 [1] [mg/kg] | ED50 [2] [mg/kg] |
| --- | --- | --- |
| CN1c2ccccc2C(c2ccccc2)=NCC1CNC(=O)c1ccoc1 (centres unmarked) [Compound 22, 1-methyl-2-[(furane-3-carbonyl)-aminomethyl]-5-phenyl-2,3-dihydro-1,4-benzodiazepine] | 0.44 | 14 |
| COc1ccc2c(c1)N(C)C(CNC(=O)c1sccc1C)CN=C2c1ccccc1 (centres unmarked) [Compound 23, 8-methoxy-1-methyl-2-[(3-methylthiophene-2-carbonyl)-aminomethyl]-5-phenyl-1H-2,3-dihydro-1,4-benzodiazepine] | 7.2 | 25 |
| CN1c2cc3c(cc2C(c2ccccc2)=NCC1CNC(=O)c1cccs1)OCO3 (centres unmarked) [Compound 24, 7,8-methylenedioxy-1-methyl-2-[(thiophene-2-carbonyl)-aminomethyl]-5-phenyl-1H-2,3-dihydro-1,4-benzodiazepine] | 3.8 | 10 |
| CN1c2cc3c(cc2C(c2ccccc2)=NCC1CNC(=O)c1ccco1)OCO3 (centres unmarked) [Compound 25] | < 5.6 | < 32 |
| CN1c2cc3c(cc2C(c2ccccc2)=NCC1CNC(=O)c1ccoc1)OCO3 (centres unmarked) [Compound 26, 7,8-methylenedioxy-1-methyl-2-[(furane-3-carbonyl)-aminomethyl]-5-phenyl-1H-2,3-dihydro-1,4-benzodiazepine] | 2 | < 5.6 |
| COc1ccc2c(c1)N(C)C(CNC(=O)c1ccc(Br)s1)CN=C2c1ccccc1 (centres unmarked) [Compound 27, 8-methoxy-1-methyl-2-[(5-bromothiophene-2-carbonyl)-aminomethyl]-5-phenyl-1H-2,3-dihydro-1,4-benzodiazepine] | > 5.6 | < 32 |
| O=C(NCC1CN=C(c2ccccc2)c2ccccc2N1)c1cccs1 (centres unmarked) [Compound 28, 2-[(thiophene-2-carbonyl)-aminomethyl]-5-phenyl-1H-2,3-dihydro-1,4-benzodiazepine] | 4.2 | > 32 |
| COc1ccc2c(c1)N(C)C(CNC(=O)c1cccnc1)CN=C2c1ccccc1 (centres unmarked) [Compound 29, 8-methoxy-1-methyl-2-nicotinoylaminomethyl-5-phenyl-1H-2,3-dihydro-1,4-benzodiazepine] | 4 | 30 |
| COc1ccc2c(c1)N(C)C(CNC(=O)c1ccccn1)CN=C2c1ccccc1 (centres unmarked) [Compound 30, 8-methoxy-1-methyl-2-picolinoylaminomethyl-5-phenyl-1H-2,3-dihydro-1,4-benzodiazepine] | 7 | > 32 |
| COc1ccc2c(c1)N(C)C(CNC(=O)c1ccc(C)o1)CN=C2c1ccccc1 (centres unmarked) [Compound 31, 8-methoxy-1-methyl-2-[(5-methylfurane-2-carbonyl)-aminomethyl]-5-phenyl-1H-2,3-dihydro-1,4-benzodiazepine] | 4.4 | 30 |
| Cc1ccc(C(=O)NCC2CN=C(c3ccccc3)c3cc4c(cc3N2C)OCO4)s1 (centres unmarked) [Compound 32, 7,8-methylenedioxy-1-methyl-2-[(5-methylthiophene-2-carbonyl)-aminomethyl]-5-phenyl-1H-2,3-dihydro-1,4-benzodiazepine] | 5.6 | < 18 |
| COc1ccc2c(c1)N(C)C(CNC(=O)c1cccn1C)CN=C2c1ccccc1 (centres unmarked) [Compound 33, 8-methoxy-1-methl-2-[(1-methylpyrrol-2-carbonyl)-aminomethyl]-5-phenyl-1H-2.3-dihydro-1,4-benzodiazepine] | 1 | < 18 |
| COc1ccc2c(c1)N(C)C(CNC(=O)c1ccoc1)CN=C2c1ccc(F)cc1 (centres unmarked) [Compound 34, 8-methoxy-1-methyl-2-[(furane-3-carbonyl)-aminomethyl]-5-(4-fluorophenyl)-1H-2,3-dihydro-1,4-benzodiazepine] | 2.1 | 5.6 |
| COc1ccc2c(c1)N(C)C(CNC(=O)c1ccoc1)CN=C2c1ccccc1C(F)(F)F (centres unmarked) [Compound 35, 8-methoxy-1-methyl-2-[(furane-3-carbonyl)-aminomethyl]-5-(2-trifluoromethylphenyl)-1H-2,3-dihydro-1,4-benzodiazepine] | 1 | < 18 |
| CN1c2ccccc2C(c2ccccc2)=NCC1CNC(=O)c1cccn1C (centres unmarked) [Compound 36, 1-methyl-2-[(1-methylpyrrol-2-carbonyl)-aminomethyl]-5-phenyl-1H-2,3-dihydro-1,4-benzodiazepine] | 2.1 | > 18 |
| CN1c2cc(Cl)ccc2C(c2ccccc2)=NCC1CNC(=O)c1ccoc1 (centres unmarked) [Compound 37, 8-chloro-1-methyl-2-[(furane-3-carbonyl)-aminomethyl]-5-phenyl-1H-2,3-dihydro-1,4-benzodiazepine] | 1.2 | > 18 |
| CN1c2cc(F)ccc2C(c2ccccc2)=NCC1CNC(=O)c1ccoc1 (centres unmarked) [Compound 38, 8-fluoro-1-methyl-2-[(furane-3-carbonyl)-amino-methyl]-5-phenyl-1H-2,3-dihydro-1,4-benzodiazepine] | 0.32 | < 18 |
| COc1ccc2c(c1)N(C)C(CNC(=O)c1ccoc1)CN=C2c1ccccc1F (centres unmarked) [Compound 39, 8-methoxy-1-methyl-2-[(furane-3-carbonyl)-amino-methyl]-5-(2-fluorophenyl)-1H-2,3-dihydro-1,4-benzodiazepine] | 0.7 | < 10 |
| COc1ccc2c(c1)N(C)C(CNC(=O)c1cccs1)CN=C2c1ccccc1F (centres unmarked) [Compound 40, 8-methoxy-1-methyl-2-[(thiophene-2-carbonyl)-aminomethyl]-5-(2-fluorophenyl)-1H-2,3-dihydro-1,4-benzodiazepine] | 1.2 | < 18 |
| CN1c2cc3c(cc2C(c2ccccc2)=NCC1CNC(=O)c1ccsc1)OCO3 (centres unmarked) [Compound 41, 7,8-methylenedioxy-1-methyl-2-[(thiophene-3-carbonyl)-aminomethyl]-5-phenyl-1H-2,3-dihydro-1,4-benzodiazepine] | 2.1 | 5.6 |
| COc1ccc2c(c1)N(C)C(CNC(=O)c1ccoc1)CN=C2c1cccc(F)c1 (centres unmarked) [Compound 42, 8-methoxy-1-methyl-2-[(furane-3-carbonyl)-aminomethyl]-5-(3-fluorophenyl)-1H-2,3-dihydro-1,4-benzodiazepine] | 5.6 | < 18 |
| Cc1ccc(C(=O)NCC2CN=C(c3ccccc3)c3ccc(F)cc3N2C)s1 (centres unmarked) [Compound 43, 8-fluoro-1-methyl-2-[(5-methylthiophene-2-carbonyl)-aminomethyl]-5-phenyl-1H-2,3-dihydro-1,4-benzodiazepine] | 5.6 | < 18 |
| CN1c2cc3c(cc2C(c2ccccc2)=NCC1CNC(=O)c1ccoc1)OCCO3 (centres unmarked) [Compound 44, 7,8-ethylenedioxy-1-methyl-2-[(furane-3-carbonyl)-aminomethyl]-5-phenyl-1H-2,3-dihydro-1,4-benzodiazepine] | > 5.6 | < 18 |
| Cc1ccc2c(c1)C(c1ccccc1F)=NCC(CNC(=O)c1ccoc1)N2C (centres unmarked) [Compound 45, 1,7-dimethyl-2-[(furane-3-carbonyl)-aminomethyl]-5-(2-fluorophenyl)-1H-2,3-dihydro-1,4-benzodiazepine] | 3.8 | < 18 |
| COc1ccc2c(c1)N(C)C(CNC(=O)c1ccc(Br)s1)CN=C2c1ccccc1F (centres unmarked) [Compound 46, 8-methoxy-1-methyl-2-[(5-bromothiophene-2-carbonyl)-aminomethyl]-5-(2-fluorophenyl)-1H-2,3-dihydro-1,4-benzodiazepine] | 5.6 | < 18 |
| COc1ccc2c(c1)N(C)C(CNC(=O)c1cccs1)CN=C2c1ccc(F)cc1 (centres unmarked) [Compound 47] | 3.2 | < 18 |
| COc1ccc2c(c1)N(C)C(CNC(=O)c1ccc(Br)s1)CN=C2c1cccc(F)c1 (centres unmarked) [Compound 48, 8-methoxy-1-methyl-2-[(5-bromothiophene-2-carbonyl)-aminomethyl]-5-(3-fluorophenyl)-1H-2,3-dihydro-1,4-benzodiazepine] | > 5.6 | < 18 |
| COc1ccc2c(c1)N(C)C(CNC(=O)c1ccc(Br)s1)CN=C2c1ccc(F)cc1 (centres unmarked) [Compound 49, 8-methoxy-1-methyl-2-[(5-bromothiophene-2-carbonyl)-aminomethyl]-5-(4-fluorophenyl)-1H-2,3-dihydro-1,4-benzodiazepine] | > 5.6 | < 18 |
